This is an account of results in patent US11365204B2, “Substituted dihydrothienopyrimidines and their use as phosphodiesterase inhibitors” (UNION therapeutics A/S, priority 2017, dated 2022).

What is called IC50 is the concentration needed to halve the response being measured.

Some results are limits rather than exact numbers.

Assay [1] has as its target human PDE4D catalytic domain (UniProt no. Q08499 [S380-L740]) (Homo sapiens (Human), UniProt Q08499). Nature of the assay: PDE4 assay (TR-FRET, cAMP hydrolysis). In kind it is biochemical. The note with it: read-out: PDE4 IC50 range. As to the method:
The human PDE4D catalytic domain (UniProt no. Q08499 [S380-L740]) was incubated with a mixture of non-labelled cAMP (cyclic adenosine monophosphate) and fluorescein amidite (FAM) conjugated cAMP and titrated test or reference compound.
Following brief incubation the enzymatic reaction was stopped by addition of binding buffer containing nanoparticles with immobilized trivalent metal ions capable of binding 1) AMP phospho groups and 2) terbium (Tb) donor fluorophores. Subsequent excitation of the Tb donor triggered time-resolved FRET to adjacent FAM acceptor molecules resulting in light emission. In the presence of a PDE4 inhibitor, AMP generation was reduced resulting in a lower fluorescence signal. The cAMP phosphodiester is not bound by the detection system.
Results were expressed as IC50 values (nM) calculated from inhibition curves where the TR-FRET signal was normalized to Tb fluorescence intensity and the negative (DMSO vehicle) and positive (10 microM a PDE4 inhibitor reference compound) controls.
(In general: Time-resolved FRET reads energy transfer from a long-lived donor to a nearby acceptor.)

The test system of assay [2] is Human peripheral blood mononuclear cells (PBMC). Nature of the assay: TNF-α release from LPS-stimulated PBMC. In kind it is cell-based. The conditions noted are these: Lipopolysaccharide 1 microg/ml, 18 hours, AlphaLISA, read-out: TNF-α IC50 range. The procedure:
Human peripheral blood mononuclear cells (PBMC) were isolated from fresh buffy coats by density centrifugation using lymphoprep tubes (Medinor). Frozen PBMC's were washed in serum free assay buffer (RPMI1640 with 25 mM HEPES, 1% pen/strep, […] L glutamine, 0.5% human serum albumin) and living cells counted. Lipopolysaccharide (1 microg/ml; SIGMA) was added to the cells which were then transferred to 384 well tissue culture plates ([…]) containing titrated test compounds. The cells were incubated for 18 hours at 37° C. in serum free assay buffer and the level of TNFalpha in the supernatant was quantitated by AlphaLISA (PerkinElmer) by measuring fluorescence intensity at 615 nm.
Results were expressed as IC50 values calculated from inhibition curves using as controls the secretion in LPS stimulated wells and the secretion in cells incubated with 10 microM of a PDE4 inhibitor reference compound.

Chain of human PDE4D catalytic domain (Q08499 380-740): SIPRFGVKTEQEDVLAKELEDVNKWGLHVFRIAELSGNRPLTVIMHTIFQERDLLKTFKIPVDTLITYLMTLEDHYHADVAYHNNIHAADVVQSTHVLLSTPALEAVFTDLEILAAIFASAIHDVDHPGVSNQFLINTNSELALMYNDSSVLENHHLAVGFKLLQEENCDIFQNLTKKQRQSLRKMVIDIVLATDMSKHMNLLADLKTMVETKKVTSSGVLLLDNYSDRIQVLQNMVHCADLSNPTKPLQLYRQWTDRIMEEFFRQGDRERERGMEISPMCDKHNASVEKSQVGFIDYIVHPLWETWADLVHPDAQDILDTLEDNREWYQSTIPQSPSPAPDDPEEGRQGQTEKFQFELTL

Turning to `CN(c1nc(N2CC(OC(=O)c3ccccc3F)C2)nc2c1[S+]([O-])CC2)C1CCOCC1` (centres unmarked) [Example 29, [1-[4-[methyl(tetra-hydropyran-4-yl)amino]-5-oxido-6,7-dihydro-thieno[3,2-d]pyrimidin-5-ium-2-yl]azetidin-3-yl] 2-fluorobenzoate], the IC50 in assay [1] and in assay [2] was less than 100 nM each time.
In the case of `CCn1ccc(C(=O)OC2CN(c3nc4c(c(N(C)C5CCOCC5)n3)[S+]([O-])CC4)C2)n1` (centres unmarked) [Example 30, [1-[4-[methyl(tetra-hydropyran-4-yl)amino]-5-oxido-6,7-dihydro-thieno[3,2-d]pyrimidin-5-ium-2-yl]azetidin-3-yl] 1-ethylpyrazole-3-carboxylate], the IC50 in assay [1] and in assay [2] was less than 100 nM throughout.
Take `Cc1cc(C(=O)OC2CN(c3nc4c(c(N(C)C5CCOCC5)n3)[S+]([O-])CC4)C2)nn1C` (centres unmarked) [Example 31, [1-[4-[methyl(tetra-hydropyran-4-yl)amino]-5-oxido-6,7-dihydro-thieno[3,2-d]pyrimidin-5-ium-2-yl]azetidin-3-yl] l,5-dimethylpyrazole-3-carboxylate]: the half-inhibitory concentration (IC50) in assay [1] and in assay [2] was less than 100 nM in each case.
With `CCn1cc(C(=O)OC2CN(c3nc4c(c(N(C)C5CCOCC5)n3)[S+]([O-])CC4)C2)cn1` (centres unmarked) [Example 32, [1-[4-[methyl(tetra-hydropyran-4-yl)amino]-5-oxido-6,7-dihydro-thieno[3,2-d]pyrimidin-5-ium-2-yl]azetidin-3-yl] 1-ethylpyrazole-4-carboxylate], the half-inhibitory concentration (IC50) in assay [1] and in assay [2] was less than 100 nM throughout.
As to `CCc1nc(C(=O)OC2CN(c3nc4c(c(N(C)C5CCOCC5)n3)[S+]([O-])CC4)C2)co1` (centres unmarked) [Example 33, [1-[4-[methyl(tetra-hydropyran-4-yl)amino]-5-oxido-6,7-dihydro-thieno[3,2-d]pyrimidin-5-ium-2-yl]azetidin-3-yl] 2-ethyloxazole-4-carboxylate], the IC50 in assay [1] and in assay [2] was less than 100 nM in each case.
In the case of `Cc1cc(C(=O)OC2CN(c3nc4c(c(N(C)C5CCOCC5)n3)[S+]([O-])CC4)C2)sn1` (centres unmarked) [Example 34, [1-[4-[methyl(tetra-hydropyran-4-yl)amino]-5-oxido-6,7-dihydro-thieno[3,2-d]pyrimidin-5-ium-2-yl]azetidin-3-yl] 3-methylisothiazole-5-carboxylate], the 50% inhibitory concentration (IC50) in assay [1] and in assay [2] was less than 100 nM throughout.
With `Cc1nc(C(=O)OC2CN(c3nc4c(c(N(C)C5CCOCC5)n3)[S+]([O-])CC4)C2)cs1` (centres unmarked) [Example 35, [1-[4-[methyl(tetra-hydropyran-4-yl)amino]-5-oxido-6,7-dihydro-thieno[3,2-d]pyrimidin-5-ium-2-yl]azetidin-3-yl] 2-methylthiazole-4-carboxylate], the IC50 in assay [1] and in assay [2] was less than 100 nM each time.
For `Cc1ncc(C(=O)OC2CN(c3nc4c(c(N(C)C5CCOCC5)n3)[S+]([O-])CC4)C2)s1` (centres unmarked) [Example 36, [1-[4-[methyl(tetra-hydropyran-4-yl)amino]-5-oxido-6,7-dihydro-thieno[3,2-d]pyrimidin-5-ium-2-yl]azetidin-3-yl] 2-methylthiazole-5-carboxylate], the IC50 in assay [1] and in assay [2] was less than 100 nM throughout.
Consider `CN(c1nc(N2CC(OC(=O)[C@H]3CC[C@@H](O)CC3)C2)nc2c1[S+](O)CC2)C1CCOCC1` (some centres unmarked) [Example 37, [1-[4-[methyl(tetra-hydropyran-4-yl)amino]-5-oxido-6,7-dihydro-thieno[3,2-d]pyrimidin-5-ium-2-yl]azetidin-3-yl] 4-hydroxycyclohexane-carboxylate], for which the 50% inhibitory concentration (IC50) in assay [1] and in assay [2] was less than 100 nM each time.
With `CN(c1nc(N2CC(OC(=O)[C@H]3CC[C@@H](O)CC3)C2)nc2c1[S+](O)CC2)C1CCOCC1` (some centres unmarked) [Example 38, [1-[4-[methyl(tetra-hydropyran-4-yl)amino]-5-oxido-6,7-dihydro-thieno[3,2-d]pyrimidin-5-ium-2-yl]azetidin-3-yl] 4-hydroxycyclohexane-carboxylate], the IC50 in assay [1] and in assay [2] was less than 100 nM throughout.
On to `CN(c1nc(N2CC(OC(=O)[C@H]3CC[C@H](O)CC3)C2)nc2c1[S+](O)CC2)C1CCOCC1` (some centres unmarked) [Example 39, [1-[4-[methyl(tetra-hydropyran-4-yl)amino]-5-oxido-6,7-dihydro-thieno[3,2-d]pyrimidin-5-ium-2-yl]azetidin-3-yl] 4-hydroxycyclohexane-carboxylate], for which the IC50 in assay [1] and in assay [2] was less than 100 nM throughout.
Turning to `CN(c1nc(N2CC(OC(=O)C3CCSCC3)C2)nc2c1[S+](O)CC2)C1CCOCC1` (centres unmarked) [Example 40, [1-[4-[methyl(tetra-hydropyran-4-yl)amino]-5-oxido-6,7-dihydro-thieno[3,2-d]pyrimidin-5-ium-2-yl]azetidin-3-yl] tetrahydrothiopyran-4-carboxylate], the concentration for half-maximal inhibition (IC50) in assay [1] and in assay [2] was less than 100 nM throughout.
As for `Cc1cc(C(=O)OC2CN(c3nc4c(c(N(C)C5CCOCC5)n3)[S+](O)CC4)C2)cc(C)n1` (centres unmarked) [Example 41, [1-[4-[methyl(tetra-hydropyran-4-yl)amino]-5-oxido-6,7-dihydro-thieno[3,2-d]pyrimidin-5-ium-2-yl]azetidin-3-yl] 2,6-dimethylpyridine-4-carboxylate], the half-inhibitory concentration (IC50) in assay [1] and in assay [2] was less than 100 nM each time.
With `COc1ccc(C(=O)OC2CN(c3nc4c(c(N(C)C5CCOCC5)n3)[S+]([O-])CC4)C2)cc1` (centres unmarked) [Example 42, [1-[4-[methyl(tetra-hydropyran-4-yl)amino]-5-oxido-6,7-dihydro-thieno[3,2-d]pyrimidin-5-ium-2-yl]azetidin-3-yl] 4-methoxybenzoate], the 50% inhibitory concentration (IC50) in assay [1] and in assay [2] was less than 100 nM in each case.
As to `COc1cccc(C(=O)OC2CN(c3nc4c(c(N(C)C5CCOCC5)n3)[S+](O)CC4)C2)c1` (centres unmarked) [Example 43, [1-[4-[methyl(tetra-hydropyran-4-yl)amino]-5-oxido-6,7-dihydro-thieno[3,2-d]pyrimidin-5-ium-2-yl]azetidin-3-yl] 3-methoxybenzoate], the half-inhibitory concentration (IC50) in assay [1] and in assay [2] was less than 100 nM each time.
Turning to `CN(c1nc(N2CC(OC(=O)CCS(C)(=O)=O)C2)nc2c1[S+]([O-])CC2)C1CCOCC1` (centres unmarked) [Example 44], the IC50 in assay [1] and in assay [2] was 100 to 500 nM in each case.
`CCc1cc(C(=O)OC2CN(c3nc4c(c(N(C)C5CCOCC5)n3)[S+]([O-])CC4)C2)nn1C` (centres unmarked) [Example 45, [1-[4-[methyl(tetra-hydropyran-4-yl)amino]-5-oxido-6,7-dihydro-thieno[3,2-d]pyrimidin-5-ium-2-yl]azetidin-3-yl] 5-ethyl-1-methyl-pyrazole-3-carboxylate]: the IC50 in assay [1] and in assay [2] was less than 100 nM each time.
`CCc1nc(C(=O)OC2CN(c3nc4c(c(N(C)C5CCOCC5)n3)[S+](O)CC4)C2)cs1` (centres unmarked) [Example 46, [1-[4-[methyl(tetra-hydropyran-4-yl)amino]-5-oxido-6,7-dihydro-thieno[3,2-d]pyrimidin-5-ium-2-yl]azetidin-3-yl] 2-ethylthiazole-4-carboxylate]: the half-inhibitory concentration (IC50) in assay [1] and in assay [2] was less than 100 nM throughout.
On to `CC(=O)c1cccc(C(=O)OC2CN(c3nc4c(c(N(C)C5CCOCC5)n3)[S+](O)CC4)C2)c1` (centres unmarked) [Example 47, [1-[4-[methyl(tetra-hydropyran-4-yl)amino]-5-oxido-6,7-dihydro-thieno[3,2-d]pyrimidin-5-ium-2-yl]azetidin-3-yl] 3-acetylbenzoate], for which the IC50 in assay [1] and in assay [2] was less than 100 nM each time.
In the case of `CC(=O)c1ccc(C(=O)OC2CN(c3nc4c(c(N(C)C5CCOCC5)n3)[S+](O)CC4)C2)cc1` (centres unmarked) [Example 48, [1-[4-[methyl(tetra-hydropyran-4-yl)amino]-5-oxido-6,7-dihydro-thieno[3,2-d]pyrimidin-5-ium-2-yl]azetidin-3-yl] 4-acetylbenzoate], the IC50 in assay [1] and in assay [2] was less than 100 nM throughout.
As to `CC(=O)N1CCC(C(=O)OC2CN(c3nc4c(c(N(C)C5CCOCC5)n3)[S+](O)CC4)C2)CC1` (centres unmarked) [Example 49, [1-[4-[methyl(tetra-hydropyran-4-yl)amino]-5-oxido-6,7-dihydro-thieno[3,2-d]pyrimidin-5-ium-2-yl]azetidin-3-yl] 1-acetylpiperidine-4-carboxylate], the IC50 in assay [1] and in assay [2] was less than 100 nM in each case.
Turning to `CN(c1nc(N2CC(OC(=O)C3CCS(=O)(=O)CC3)C2)nc2c1[S+](O)CC2)C1CCOCC1` (centres unmarked) [Example 50, [1-[4-[methyl(tetra-hydropyran-4-yl)amino]-5-oxido-6,7-dihydro-thieno[3,2-d]pyrimidin-5-ium-2-yl]azetidin-3-yl] 1,1-dioxothiane-4-carboxylate], the IC50 in assay [1] and in assay [2] was 100 to 500 nM each time.
